According to the NIST ThermoML archive (doi:10.1021/je900387e):

Test: xn = mol fraction of the nth substance listed
Conditions: Liquid, Pycnometric method

Cn1ccnc1 [1-methylimidazole] + O=C=O
Conditions	mass density [kg/m3]
313.1 K, 11200 kPa, x1 = 0.0247	802
313.1 K, 11280 kPa, x1 = 0.0487	852
313.1 K, 11440 kPa, x1 = 0.0487	855
313.1 K, 11540 kPa, x1 = 0.0102	771
313.1 K, 11540 kPa, x1 = 0.1024	928
313.1 K, 11580 kPa, x1 = 0.0247	811
313.1 K, 11620 kPa, x1 = 0.0487	858
313.1 K, 11740 kPa, x1 = 0.1024	930
313.1 K, 11790 kPa, x1 = 0.0487	860
313.1 K, 11980 kPa, x1 = 0.0487	862
313.1 K, 11990 kPa, x1 = 0.1024	933
313.1 K, 12000 kPa, x1 = 0.0247	819
313.1 K, 12070 kPa, x1 = 0.0102	786
313.1 K, 12180 kPa, x1 = 0.0487	865
313.1 K, 12320 kPa, x1 = 0.1024	936
313.1 K, 12490 kPa, x1 = 0.0247	828
313.1 K, 12620 kPa, x1 = 0.1024	939
313.1 K, 12700 kPa, x1 = 0.0102	800
313.1 K, 12970 kPa, x1 = 0.1024	942
313.1 K, 13010 kPa, x1 = 0.0247	837
313.1 K, 13280 kPa, x1 = 0.1024	944
313.1 K, 13460 kPa, x1 = 0.0102	816
313.1 K, 13600 kPa, x1 = 0.0247	846
313.1 K, 13660 kPa, x1 = 0.1024	947
313.1 K, 14020 kPa, x1 = 0.1024	950
313.1 K, 14280 kPa, x1 = 0.0247	855
313.1 K, 14340 kPa, x1 = 0.0102	832
313.1 K, 14430 kPa, x1 = 0.1024	954
313.1 K, 14780 kPa, x1 = 0.1024	956
313.1 K, 14970 kPa, x1 = 0.0247	865
313.1 K, 15010 kPa, x1 = 0.0102	842
313.1 K, 15210 kPa, x1 = 0.1024	959
313.1 K, 15360 kPa, x1 = 0.0247	870
313.1 K, 15650 kPa, x1 = 0.1024	963
313.1 K, 15790 kPa, x1 = 0.0247	875
313.1 K, 16150 kPa, x1 = 0.1024	966
313.1 K, 16220 kPa, x1 = 0.0247	880
313.1 K, 16560 kPa, x1 = 0.1024	969
313.1 K, 16690 kPa, x1 = 0.0247	885
313.1 K, 17100 kPa, x1 = 0.1024	972
313.1 K, 17540 kPa, x1 = 0.1024	975
313.1 K, 18150 kPa, x1 = 0.1024	979
313.1 K, 18570 kPa, x1 = 0.1024	981
313.1 K, 18940 kPa, x1 = 0.1024	983
317.9 K, 9730 kPa, x1 = 0.0102	555
317.9 K, 9780 kPa, x1 = 0.0102	563
317.9 K, 9850 kPa, x1 = 0.0102	573
317.9 K, 9910 kPa, x1 = 0.0102	583
317.9 K, 9990 kPa, x1 = 0.0102	594
317.9 K, 10080 kPa, x1 = 0.0102	606
317.9 K, 10180 kPa, x1 = 0.0102	618
317.9 K, 10180 kPa, x1 = 0.0247	708
317.9 K, 10300 kPa, x1 = 0.0102	630
317.9 K, 10340 kPa, x1 = 0.0247	716
317.9 K, 10440 kPa, x1 = 0.0102	643
317.9 K, 10490 kPa, x1 = 0.0247	723
317.9 K, 10620 kPa, x1 = 0.0102	656
317.9 K, 10640 kPa, x1 = 0.0247	730
317.9 K, 10810 kPa, x1 = 0.0102	670
317.9 K, 10810 kPa, x1 = 0.0247	737
317.9 K, 11000 kPa, x1 = 0.0247	744
317.9 K, 11050 kPa, x1 = 0.0102	684
317.9 K, 11220 kPa, x1 = 0.0247	751
317.9 K, 11330 kPa, x1 = 0.0102	699
317.9 K, 11460 kPa, x1 = 0.0247	758
317.9 K, 11510 kPa, x1 = 0.0487	815
317.9 K, 11590 kPa, x1 = 0.0487	817
317.9 K, 11680 kPa, x1 = 0.0102	715
317.9 K, 11700 kPa, x1 = 0.0487	820
317.9 K, 11710 kPa, x1 = 0.0247	766
317.9 K, 11820 kPa, x1 = 0.0487	822
